Assay results taken from patent EP4745135A1 (Gluetacs Therapeutics (Shanghai) Co., Ltd., priority 2023, dated 2025).

Experiments:
IKZF2 = biological target: T1, IKZF2 (Homo sapiens, UniProt Q96SW2+Q9UKS7); test: Western blot, degradation of substrate protein in hPBMCs; assay type: cell-based
T1 construct: effects of the compounds of the present disclosure on the expression of target proteins in cells; endogenous in cells; host or cells: human PBMCs (Milecell Biotechnologies)
Procedure: (§1) Conventional Western blot assay was performed to evaluate the effects of the compounds of the present disclosure on the expression of target proteins in cells. • (1) Cell Seeding and Protein Harvesting: Human peripheral blood mononuclear cells (hPBMCs) at a density of 1×10^6 cells/mL were thawed according to the PBMC Recovery Protocol (Milecell Biotechnologies Inc, Shanghai). […] After 24 hours of compounds treatment, cells were harvested and lysed in RIPA protein lysate containing protease inhibitors on ice for 30 min, followed by centrifugation. The supernatant was aspirated as the extracted total cell protein. The protein concentration of the supernatant was determined using the conventional BCA (Bicinchoninic Acid) assay. • (2) To the collected supernatant, 5X SDS sample loading buffer was added, followed by denaturation at 95°C for 5 minutes. The denatured samples were then separated by SDS-PAGE electrophoresis on a polyacrylamide gel, transferred onto a nitrocellulose membrane (0.45 µm NC membrane), blocked with blocking buffer at room temperature for 1 hour, and subjected to antibody incubation and development procedures according to the antibody manufacturer's instructions (Cell Signaling Technology Company).
(§2) Half-Maximal Degradation Concentration value (the drug concentration required for degrading proteins by 50%, abbreviated as DC50) reads method: comparing the grayscale values of Western blot bands from drug-treated samples with those from blank DMSO-treated controls, and identifying the drug concentration range at which the grayscale value is half that of the DMSO-treated control bands.
(§3) DC50 values can be calculated using ImageJ software to measure grayscale values of Western blot bands from drug-treated samples. The concentration-response curve is fitted to estimate the drug concentration corresponding to half the grayscale value.
(§4) Target protein remaining (%) refers to the percentage of target protein remaining in cells after treatment with protein degrader compounds.
(§5) Calculation method for target protein remaining (%): Use ImageJ software to measure grayscale values of Western blot bands from drug (protein degrader)-treated samples. The grayscale value of drug-treated bands is divided by that of internal control protein bands, and the resulting quotient is normalized to obtain the relative percentage of remaining target protein after protein degrader treatment.
(§6) Target protein degradation rate (%) = 1−target protein remaining (%). [formula]

CK1α = biological target: T2, CK1α (Homo sapiens, UniProt P48729+Q96SW2); test: as above; assay type: cell-based
T2 construct: effects of the compounds of the present disclosure on the expression of target proteins in cells; endogenous in cells; host or cells: human PBMCs (Milecell Biotechnologies)
T2 sequence (P48729 whole entry): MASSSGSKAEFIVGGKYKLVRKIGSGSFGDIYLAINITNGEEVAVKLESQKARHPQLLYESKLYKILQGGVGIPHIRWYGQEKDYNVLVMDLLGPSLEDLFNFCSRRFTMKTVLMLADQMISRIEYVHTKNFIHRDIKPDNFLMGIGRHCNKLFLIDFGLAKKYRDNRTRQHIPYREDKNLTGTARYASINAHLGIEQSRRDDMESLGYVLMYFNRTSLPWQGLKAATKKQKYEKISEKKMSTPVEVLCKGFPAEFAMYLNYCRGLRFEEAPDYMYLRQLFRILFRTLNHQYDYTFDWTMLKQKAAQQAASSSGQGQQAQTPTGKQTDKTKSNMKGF
T2 sequence (Q96SW2 whole entry): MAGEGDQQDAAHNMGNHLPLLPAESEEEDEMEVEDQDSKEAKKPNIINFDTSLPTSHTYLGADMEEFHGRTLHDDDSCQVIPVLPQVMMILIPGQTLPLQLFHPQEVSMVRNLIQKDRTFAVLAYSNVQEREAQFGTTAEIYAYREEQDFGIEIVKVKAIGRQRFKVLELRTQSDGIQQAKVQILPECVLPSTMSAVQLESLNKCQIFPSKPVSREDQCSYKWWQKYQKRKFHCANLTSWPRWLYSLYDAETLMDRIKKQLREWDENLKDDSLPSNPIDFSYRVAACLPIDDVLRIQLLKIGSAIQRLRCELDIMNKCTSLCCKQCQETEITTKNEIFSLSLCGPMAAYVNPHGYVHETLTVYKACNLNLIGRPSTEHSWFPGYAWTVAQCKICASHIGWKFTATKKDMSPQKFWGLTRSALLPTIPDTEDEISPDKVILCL
T2 sequence (Q16531 whole entry partner): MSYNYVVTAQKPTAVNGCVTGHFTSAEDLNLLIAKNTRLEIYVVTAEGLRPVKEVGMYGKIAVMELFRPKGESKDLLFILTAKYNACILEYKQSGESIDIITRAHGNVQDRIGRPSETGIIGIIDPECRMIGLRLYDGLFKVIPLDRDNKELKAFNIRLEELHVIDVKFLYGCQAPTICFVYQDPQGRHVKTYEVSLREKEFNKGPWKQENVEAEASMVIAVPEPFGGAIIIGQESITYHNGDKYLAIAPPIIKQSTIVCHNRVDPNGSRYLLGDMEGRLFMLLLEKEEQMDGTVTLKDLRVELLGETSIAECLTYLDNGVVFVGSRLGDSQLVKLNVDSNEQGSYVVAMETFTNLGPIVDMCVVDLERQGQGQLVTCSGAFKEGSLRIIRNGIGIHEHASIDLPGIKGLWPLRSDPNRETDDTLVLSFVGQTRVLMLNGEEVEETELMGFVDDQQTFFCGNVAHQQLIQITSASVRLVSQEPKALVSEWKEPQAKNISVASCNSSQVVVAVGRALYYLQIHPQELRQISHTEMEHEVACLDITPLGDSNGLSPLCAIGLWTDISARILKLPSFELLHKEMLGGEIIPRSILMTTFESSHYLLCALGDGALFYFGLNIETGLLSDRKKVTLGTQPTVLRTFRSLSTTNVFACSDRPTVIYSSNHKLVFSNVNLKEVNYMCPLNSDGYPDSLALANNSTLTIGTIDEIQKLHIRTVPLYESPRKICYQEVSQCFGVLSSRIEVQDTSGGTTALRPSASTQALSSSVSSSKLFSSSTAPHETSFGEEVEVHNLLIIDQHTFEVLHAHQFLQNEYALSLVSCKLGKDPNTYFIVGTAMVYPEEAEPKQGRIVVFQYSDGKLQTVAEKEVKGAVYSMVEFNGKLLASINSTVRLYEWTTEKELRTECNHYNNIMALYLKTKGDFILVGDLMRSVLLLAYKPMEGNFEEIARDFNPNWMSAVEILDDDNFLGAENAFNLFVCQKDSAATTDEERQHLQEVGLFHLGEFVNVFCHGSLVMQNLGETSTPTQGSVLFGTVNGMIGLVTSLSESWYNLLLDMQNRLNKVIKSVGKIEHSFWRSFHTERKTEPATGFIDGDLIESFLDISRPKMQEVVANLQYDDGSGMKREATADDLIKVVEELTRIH
Procedure: as §1, §2, §3, §4, §5, §6

IKZF3 = biological target: T3, IKZF3 (Homo sapiens, UniProt Q96SW2+Q9UKT9); test: as above; assay type: cell-based
T3 construct: effects of the compounds of the present disclosure on the expression of target proteins in cells; endogenous in cells; host or cells: human PBMCs (Milecell Biotechnologies)
T3 sequence (Q9UKT9 whole entry): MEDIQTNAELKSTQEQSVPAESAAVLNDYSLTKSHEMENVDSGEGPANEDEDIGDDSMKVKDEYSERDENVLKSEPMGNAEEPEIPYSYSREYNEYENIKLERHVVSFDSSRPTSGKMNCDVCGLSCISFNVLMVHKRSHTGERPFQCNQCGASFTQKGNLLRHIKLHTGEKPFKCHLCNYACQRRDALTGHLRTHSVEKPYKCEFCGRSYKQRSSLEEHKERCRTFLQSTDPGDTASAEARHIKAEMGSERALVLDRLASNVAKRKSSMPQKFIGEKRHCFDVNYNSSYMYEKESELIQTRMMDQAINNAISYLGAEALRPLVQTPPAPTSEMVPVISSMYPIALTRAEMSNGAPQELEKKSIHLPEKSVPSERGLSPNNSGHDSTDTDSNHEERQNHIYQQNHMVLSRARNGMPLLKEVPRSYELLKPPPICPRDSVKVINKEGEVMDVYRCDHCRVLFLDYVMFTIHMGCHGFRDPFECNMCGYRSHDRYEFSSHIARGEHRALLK
T3 sequence (Q96SW2 whole entry): as the sequence (Q96SW2 whole entry) above
T3 sequence (Q16531 whole entry partner): as the sequence (Q16531 whole entry partner) above
Procedure: as §1, §2, §3, §4, §5, §6

IKZF1 = biological target: T4, IKZF1 (Homo sapiens, UniProt Q13422+Q96SW2); test: as above; assay type: cell-based
T4 construct: effects of the compounds of the present disclosure on the expression of target proteins in cells; endogenous in cells; host or cells: human PBMCs (Milecell Biotechnologies)
T4 sequence (Q13422 whole entry): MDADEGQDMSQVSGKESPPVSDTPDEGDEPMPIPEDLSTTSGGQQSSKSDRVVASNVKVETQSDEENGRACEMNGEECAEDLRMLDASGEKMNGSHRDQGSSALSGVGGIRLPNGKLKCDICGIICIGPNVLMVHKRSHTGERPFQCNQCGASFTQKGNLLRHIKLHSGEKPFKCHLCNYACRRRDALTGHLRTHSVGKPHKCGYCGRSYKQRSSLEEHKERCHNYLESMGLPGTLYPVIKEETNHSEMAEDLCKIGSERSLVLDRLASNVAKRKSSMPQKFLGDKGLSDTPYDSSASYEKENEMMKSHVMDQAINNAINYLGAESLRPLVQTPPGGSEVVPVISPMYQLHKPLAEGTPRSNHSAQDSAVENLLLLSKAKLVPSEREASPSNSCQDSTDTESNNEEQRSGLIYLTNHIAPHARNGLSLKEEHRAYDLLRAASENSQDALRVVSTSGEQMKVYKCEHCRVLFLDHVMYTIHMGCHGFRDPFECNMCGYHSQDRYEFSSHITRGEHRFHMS
T4 sequence (Q96SW2 whole entry): as the sequence (Q96SW2 whole entry) above
T4 sequence (Q16531 whole entry partner): as the sequence (Q16531 whole entry partner) above
Procedure: as §1, §2, §3, §4, §5, §6

WEE1 = biological target: T5, WEE1 (Homo sapiens, UniProt P30291+Q96SW2); test: as above; assay type: cell-based
T5 construct: effects of the compounds of the present disclosure on the expression of target proteins in cells; endogenous in cells; host or cells: human PBMCs (Milecell Biotechnologies)
T5 sequence (P30291 whole entry): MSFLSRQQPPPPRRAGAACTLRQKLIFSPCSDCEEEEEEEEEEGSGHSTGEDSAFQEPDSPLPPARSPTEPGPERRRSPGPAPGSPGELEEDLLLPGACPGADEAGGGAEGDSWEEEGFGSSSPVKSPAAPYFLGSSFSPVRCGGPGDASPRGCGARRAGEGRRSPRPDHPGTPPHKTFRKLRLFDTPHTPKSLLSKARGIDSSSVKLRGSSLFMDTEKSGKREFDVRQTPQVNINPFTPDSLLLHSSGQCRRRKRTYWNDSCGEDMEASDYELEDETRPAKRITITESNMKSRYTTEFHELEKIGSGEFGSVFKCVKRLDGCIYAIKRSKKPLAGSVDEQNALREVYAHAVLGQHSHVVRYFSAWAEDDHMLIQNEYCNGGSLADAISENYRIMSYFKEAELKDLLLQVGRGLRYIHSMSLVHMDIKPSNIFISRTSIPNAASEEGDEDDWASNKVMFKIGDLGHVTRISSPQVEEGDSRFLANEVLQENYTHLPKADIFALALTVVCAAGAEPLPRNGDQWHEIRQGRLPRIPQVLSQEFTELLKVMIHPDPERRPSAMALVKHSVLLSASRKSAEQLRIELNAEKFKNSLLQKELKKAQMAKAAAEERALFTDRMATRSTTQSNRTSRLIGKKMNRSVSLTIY
T5 sequence (Q96SW2 whole entry): as the sequence (Q96SW2 whole entry) above
T5 sequence (Q16531 whole entry partner): as the sequence (Q16531 whole entry partner) above
Procedure: as §1, §2, §3, §4, §5, §6

GSPT1 = test: as above; assay type: cell-based, Human
Procedure: as §1, §2, §3, §4, §5, §6

[1] = biological target: T6, human Cereblon WT GST-tagged protein (Homo sapiens, UniProt Q96SW2); test: CRBN-binding affinity, HTRF (CEREBLON BINDING kit); settings: for inhibition at 0.5 µM: read-out: Inhibition Rate at 0.5 µM (%); for inhibition at 2 µM: read-out: Inhibition Rate at 2 µM (%)
T6 construct: purchased CISBIO 64BDCRBNPEH
T6 sequence (Q96SW2 whole entry): as the sequence (Q96SW2 whole entry) above
Procedure: The CEREBLON BINDING kits (specification: 10,000 tests; product number: Catalog # 64BDCRBNPEH; CISBIO company) was used to determine the CRBN binding ability of the compounds to be tested through a HTRF method (homogeneous time-resolved fluorescence). The specific methods are as follows: • 1. […] Specifically, diluent #9 (1X) solution was used as the diluent, and multiple concentration gradients were set. […] Then, 2.5 µL of human Cereblon WT GST-tagged protein solution was added to each well. Finally, 5 µL of the thoroughly mixed Thalidomide-Re reagent and GST Eu antibody working solution were added to each of the aforementioned wells. […] The blank control wells were sequentially added with 2.5 µL of diluent #9 (1X) solution, 2.5 µL of PROTAC binding buffer, and 5 µL of thoroughly mixed Thalidomide-Re reagent and GST Eu antibody working solution. • 4.

[2] = Western blot, 24 hours of compound treatment, compounds tested at 50 nM and 500 nM (concentration for the table not stated)
[3] = 24 hours treatment, compounds at 50 nM and 500 nM (concentration behind the class not stated)

T1 sequence (Q9UKS7 whole entry): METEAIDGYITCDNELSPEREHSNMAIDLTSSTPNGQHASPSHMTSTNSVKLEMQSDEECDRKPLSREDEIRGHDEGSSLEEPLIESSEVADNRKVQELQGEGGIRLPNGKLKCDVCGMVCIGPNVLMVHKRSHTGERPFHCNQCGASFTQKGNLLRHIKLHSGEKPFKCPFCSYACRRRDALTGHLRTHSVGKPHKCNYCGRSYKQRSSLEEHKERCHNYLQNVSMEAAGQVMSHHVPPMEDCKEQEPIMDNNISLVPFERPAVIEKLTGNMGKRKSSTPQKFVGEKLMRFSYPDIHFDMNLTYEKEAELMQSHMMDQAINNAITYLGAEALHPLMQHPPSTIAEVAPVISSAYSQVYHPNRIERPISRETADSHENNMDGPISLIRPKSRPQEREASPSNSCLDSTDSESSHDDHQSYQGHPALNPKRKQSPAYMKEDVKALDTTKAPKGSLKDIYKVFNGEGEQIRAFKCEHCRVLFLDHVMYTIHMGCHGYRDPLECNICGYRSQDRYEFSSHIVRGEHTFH
T1 sequence (Q96SW2 whole entry): as the sequence (Q96SW2 whole entry) above
T1 sequence (Q16531 whole entry partner): as the sequence (Q16531 whole entry partner) above

| inhibition at 0.5 µM [1] | inhibition at 2 µM [1] | Structure (SMILES) | further results |
| --- | --- | --- | --- |
|  |  | O=C1CCC(N2Cc3c(CN4CCN(c5cccc(Cl)c5Cl)CC4)cccc3C2=S)C(=O)N1 (stereo not drawn) [GT-08258, 3-(4-((4-(2,3-dichlorophenyl)piperazin-1-yl)methyl)-1-thioxoisoindolin-2-yl)piperidine-2,6-dione] | IKZF2 substrate protein remaining % (IKZF2; [2]): B (80%< substrate protein remaining %≤ 100%); CK1α substrate protein remaining % (CK1α; [2]): B (80%< substrate protein remaining %≤ 100%); IKZF3 substrate protein remaining % (IKZF3; [2]): B (80%< substrate protein remaining %≤ 100%); IKZF 1 substrate protein remaining % (IKZF1; [2]): B (80%< substrate protein remaining %≤ 100%); Wee1 substrate protein remaining % (WEE1; [2]): A (0% ≤ substrate protein remaining % ≤ 80%); GSPT1 substrate protein remaining % (GSPT1; [2]): A (0% ≤ substrate protein remaining % ≤ 80%) |
|  |  | O=C1CCC(N2Cc3c(CN4CCN(c5ccccc5Br)CC4)cccc3C2=S)C(=O)N1 (stereo not drawn) [GT-08267, 3-(4-((4-(2-bromophenyl)piperazin-1-yl)methyl)-1-thioxoisoindolin-2-yl)piperidine-2,6-dione] | IKZF2 substrate protein remaining % (IKZF2; [2]): B (80%< substrate protein remaining %≤ 100%); CK1α substrate protein remaining % (CK1α; [2]): B (80%< substrate protein remaining %≤ 100%); IKZF3 substrate protein remaining % (IKZF3; [2]): B (80%< substrate protein remaining %≤ 100%); IKZF 1 substrate protein remaining % (IKZF1; [2]): B (80%< substrate protein remaining %≤ 100%); Wee1 substrate protein remaining % (WEE1; [2]): A (0% ≤ substrate protein remaining % ≤ 80%); GSPT1 substrate protein remaining % (GSPT1; [2]): A (0% ≤ substrate protein remaining % ≤ 80%) |
|  |  | O=C1CCC(N2Cc3c(CN4CC=C(c5cccc(Cl)c5Cl)CC4)cccc3C2=S)C(=O)N1 (stereo not drawn) [GT-08270, 3-(4-((4-(2,3-dichlorophenyl)-3,6-dihydropyridin-1(2H)-yl)methyl)-1-thioxoisoindolin-2-yl)piperidine-2,6-dione] | IKZF2 substrate protein remaining % (IKZF2; [2]): B (80%< substrate protein remaining %≤ 100%); CK1α substrate protein remaining % (CK1α; [2]): B (80%< substrate protein remaining %≤ 100%); IKZF3 substrate protein remaining % (IKZF3; [2]): B (80%< substrate protein remaining %≤ 100%); IKZF 1 substrate protein remaining % (IKZF1; [2]): B (80%< substrate protein remaining %≤ 100%); Wee1 substrate protein remaining % (WEE1; [2]): A (0% ≤ substrate protein remaining % ≤ 80%); GSPT1 substrate protein remaining % (GSPT1; [2]): A (0% ≤ substrate protein remaining % ≤ 80%) |
|  |  | O=C1CCC(N2Cc3c(CN4CCC(c5cccc(F)c5Cl)CC4)cccc3C2=S)C(=O)N1 (stereo not drawn) [GT-08321, 3-(4-((4-(2-chloro-3-fluorophenyl)piperidin-1-yl)methyl)-1-thioxoisoindolin-2-yl)piperidine-2,6-dione] | IKZF2 substrate protein remaining % (IKZF2; [3]): B (80%< substrate protein remaining %≤ 100%); CK1α substrate protein remaining % (CK1α; [3]): B (80%< substrate protein remaining %≤ 100%); IKZF3 substrate protein remaining % (IKZF3; [3]): A (0% ≤ substrate protein remaining % ≤ 80%); IKZF 1 substrate protein remaining % (IKZF1; [3]): B (80%< substrate protein remaining %≤ 100%); Wee1 substrate protein remaining % (WEE1; [3]): A (0% ≤ substrate protein remaining % ≤ 80%); GSPT1 substrate protein remaining % (GSPT1; [3]): B (80%< substrate protein remaining %≤ 100%) |
| 80 to 100% | 80 to 100% | Cc1sc2ncnc(N3CCN(Cc4ccc5c(c4)CN(C4CCC(=O)NC4=O)C5=S)CC3)c2c1C (stereo not drawn) [GT-09285, 3-(5-((4-(5,6-dimethylthieno[2,3-d]pyrimidin-4-yl)piperazin-1-yl)methyl)-1-thioxoisoindolin-2-yl)piperidine-2,6-dione] |  |
| 80 to 100% | 80 to 100% | Cc1sc2ncnc(N3CCCN(Cc4ccc5c(c4)CN(C4CCC(=O)NC4=O)C5=S)CC3)c2c1C (stereo not drawn) [GT-09287, 3-(5-((4-(5,6-dimethylthieno[2,3-d]pyrimidin-4-yl)-1,4-diazepan-1-yl)methyl)-1-thioxoisoindolin-2-yl)piperidine-2,6-dione] |  |
| 80 to 100% | 80 to 100% | O=C1CCC(N2Cc3cc(CN4CCN(c5ncnc6sc(Br)cc56)CC4)ccc3C2=S)C(=O)N1 (stereo not drawn) [GT-09295, 3-(5-((4-(6-bromothieno[2,3-d]pyrimidin-4-yl)piperazin-1-yl)methyl)-1-thioxoisoindolin-2-yl)piperidine-2,6-dione] |  |
| 60 to 80% | 80 to 100% | O=C1CCC(N2Cc3cc(CN4CCN(c5ncnc6scc(-c7ccccc7)c56)CC4)ccc3C2=S)C(=O)N1 (stereo not drawn) [GT-09297, 3-(5-((4-(5-phenylthieno[2,3-d]pyrimidin-4-yl)piperazin-1-yl)methyl)-1-thioxoisoindolin-2-yl)piperidine-2,6-dione] |  |
| 60 to 80% | 80 to 100% | O=C1CCC(N2Cc3cc(CN4CCN(c5ncc6ccsc6n5)CC4)ccc3C2=S)C(=O)N1 (stereo not drawn) [GT-09303, 3-(5-((4-(thieno[2,3-d]pyrimidin-2-yl)piperazin-1-yl)methyl)-1-thioxoisoindolin-2-yl)piperidine-2,6-dione] |  |
| 60 to 80% | 80 to 100% | O=C1CCC(N2Cc3cc(CN4CCC(c5ncnc6sccc56)CC4)ccc3C2=S)C(=O)N1 (stereo not drawn) [GT-09304, 3-(5-((4-(thieno[2,3-d]pyrimidin-4-yl)piperidin-1-yl)methyl)-1-thioxoisoindolin-2-yl)piperidine-2,6-dione] |  |
| 60 to 80% | 80 to 100% | Cc1cc2c(C3CCN(Cc4ccc5c(c4)CN(C4CCC(=O)NC4=O)C5=S)CC3)ncnc2s1 (stereo not drawn) [GT-09305, 3-(5-((4-(6-methylthieno[2,3-d]pyrimidin-4-yl)piperidin-1-yl)methyl)-1-thioxoisoindolin-2-yl)piperidine-2,6-dione] |  |
| 40 to 53% | 80 to 100% | O=C1CCC(N2Cc3cc(CN4CCC(c5ncnc6sc(-c7ccccc7)cc56)CC4)ccc3C2=S)C(=O)N1 (stereo not drawn) [GT-09306, 3-(5-((4-(6-phenylthieno[2,3-d]pyrimidin-4-yl)piperidin-1-yl)methyl)-1-thioxoisoindolin-2-yl)piperidine-2,6-dione] |  |
| 40 to 53% | 80 to 100% | Cc1nc(C2CCN(Cc3ccc4c(c3)CN(C3CCC(=O)NC3=O)C4=S)CC2)c2c(-c3ccccc3)csc2n1 (stereo not drawn) [GT-09308] |  |
| 40 to 53% | 80 to 100% | Cc1nc(C2=CCN(Cc3ccc4c(c3)CN(C3CCC(=O)NC3=O)C4=S)CC2)c2c3c(sc2n1)CCCC3 (stereo not drawn) [GT-09323, 3-(5-((4-(2-methyl-5,6,7,8-tetrahydrobenzo[4,5]thieno[2,3-d]pyrimidin-4-yl)-3,6-dihydropyridin-1(2H)-yl)methyl)-1-thioxoisoindolin-2-yl)piperidine-2,6-dione] |  |
| 60 to 80% | 80 to 100% | O=C1CCC(N2Cc3cc(CN4CCN(c5nc6c(c(N7CCOCC7)n5)SCC6)CC4)ccc3C2=S)C(=O)N1 (stereo not drawn) [GT-09330, 3-(5-((4-(4-morpholino-6,7-dihydrothieno[3,2-d]pyrimidin-2-yl)piperazin-1-yl)methyl)-1-thioxoisoindolin-2-yl)piperidine-2,6-dione] |  |
| 60 to 80% | 80 to 100% | O=C1CCC(N2Cc3cc(CN4CCN(c5ccnc(Cl)c5Cl)CC4)ccc3C2=S)C(=O)N1 (stereo not drawn) [GT-09354, 3-(5-((4-(2,3-dichloropyridin-4-yl)piperazin-1-yl)methyl)-1-thioxoisoindolin-2-yl)piperidine-2,6-dione] |  |
